Assay [1] concerns ubiquitin proteins in MNT-1 melanocyte line. Briefly: Anti-ubiquitin western blot of treated MNT1 cells. As to conditions: 24 hours or 72 hours after treatment, FIG. 3A, 3B. The assay is classed as cell-based, human. As for the experimental part:
(§1) 2.2 Treatment of MNT1 in Order to Assay the Proteasome, the Ubiquitin Proteins and the Tyrosinase by Western Blotting
(§2) 10^6 MNT1 cells/dish 35 mm in diameter, in quadruplicate
(§3) Treatment on D1 • Linoleic acid 25 μM • Palmitic acid 25 μM • Phaeodactylum 5 μg/ml
(§4) +1% bovine serum albumin (BSA)+Vitamin E (Vitamin E) 50 μM+Vitamin C (Vitamin C) 1 mM • Linoleic acid 25 μM • Palmitic acid 25 μM • Phaeodactylum 5 μg/ml
(§5) Preparation of the Lyzates on D2, D3 and D4
(§6) Recovery of the cell lawn in 150 μl of Laemmli 2× buffer+1% DTT (10 mM) by scraping.
Electrophoresis of the proteins is performed in a polyacrylamide minigel 1 mm to […] thick, under denaturing and reducing conditions, in batch buffer according to the Laemmli method (1970). The gels containing 12% T, 2.7% C allow separation of the low molecular weight proteins ranging from 20 to 120 kDa. The gels containing 8% T; 2.7% C allow separation of the high molecular weight proteins from 35 to 250 kDa.
Next, this membrane is placed in contact with the primary antibody diluted to the optimum concentration in PBS-T with or without 5% milk (m/v) depending on the antibody, for 1 hour with stirring at room temperature or overnight at 4° C.
Under the action of peroxidase and an amplifier, the luminol is oxidized and goes into a transient excited state. […]
(§7) The bands are quantified by means of the Gels Analysts 3.01 software.

Assay [2] concerns 20S and 26S forms of the proteasome in MNT-1 melanocyte line. Nature of the assay: Anti-proteasome western blot of treated MNT1 cells. The class given is cell-based, human. Conditions: lysis of MNT-1 24 hours and 72 hours after treatment, FIGS. 2A and 2B. The procedure:
as §1, §2, §3, §4, §5, §6
Electrophoresis of the proteins is performed in a polyacrylamide minigel 1 mm to […] thick, under denaturing and reducing conditions, in batch buffer according to the Laemmli method (1970). […]
as §7
In parallel, using specific antibodies, the 20S and 26S forms of the proteasome were quantified by western blotting.
For the purpose of determining the cause of this activation of the peptidase activities of the proteasome, we evaluated via the western blotting technique the amount of proteasome in the homogenates obtained from the lysis of MNT-1 24 hours and 72 hours after their treatment with extracts of the alga Phaeodactylum tricornutum, with fatty acids, or with a proteasome-dependent proteolysis inhibitor Mg132).
On the technique in general: Immunoblotting shows a protein as a band on a membrane.

Consider 1 compound from patent publication US8372408B2, “Use of Phaeodactylum algae extract for depigmenting the skin” (LVMH Recherche, priority 2007, dated 2013).

As for `CCCCC/C=C\C/C=C\CCCCCCCC(=O)O` [Linoleic acid], in assay [1], the “level of ubiquitin proteins” value was “not affected”. Also, in assay [2], the “amount of proteasome (expression or distribution of the 20S and 26S forms)” value was “does not modify”.
